Results: US8119624B2, “Fused phenyl amido heterocyclic compounds” (Pfizer Inc., priority 2006, dated 2012)

Target: T1, Full-length glucokinase (beta cell isoform) (Homo sapiens, UniProt P35557)
T1 construct: Full-length glucokinase (beta cell isoform) was His-tagged at N-terminus; His tag (N); made in house
T1 sequence (P35557 1-465): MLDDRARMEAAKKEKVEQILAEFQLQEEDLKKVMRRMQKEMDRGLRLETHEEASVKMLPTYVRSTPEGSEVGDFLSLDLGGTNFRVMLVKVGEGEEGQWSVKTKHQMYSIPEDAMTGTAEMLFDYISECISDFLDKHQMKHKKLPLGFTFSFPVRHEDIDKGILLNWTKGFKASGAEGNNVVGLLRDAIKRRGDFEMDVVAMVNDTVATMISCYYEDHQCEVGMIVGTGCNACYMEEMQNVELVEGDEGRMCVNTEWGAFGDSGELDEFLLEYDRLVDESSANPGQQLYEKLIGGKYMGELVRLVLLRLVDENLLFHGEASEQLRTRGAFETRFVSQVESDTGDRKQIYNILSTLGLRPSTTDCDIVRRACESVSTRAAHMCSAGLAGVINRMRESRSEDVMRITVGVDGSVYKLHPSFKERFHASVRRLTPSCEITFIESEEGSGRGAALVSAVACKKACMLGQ
Test: Glucokinase biochemical assay (PK/LDH-coupled, NADH depletion at 340 nm): % activation, EC50, % max activation
Conditions: 5 mM glucose; for activation at 10 µM: read-out: % Activation at 10 uM; for EC50: GK activation, read-out: EC50; for Emax: read-out: % Max Activation
Procedure, shortened: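 Activation expressed as (Va/Vo−1)×100, where initial rates with and without compound come from NADH depletion at 340 nm over 200–900 s. Enzyme is His-tagged human beta-cell GK, full length, run at room temperature in HEPES buffer with 1 mM ATP and 5 mM glucose. DMSO 1%.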

[1] = 10 uM compound, % Activation=(Va/Vo−1)×100

| Compound | activation at 10 µM [1] [%] | EC50 [nM] | Emax (fitted maximum activation) [%] | % Activation at 10 uM [1] [%] | % Max Activation (fitted maximum activation) [%] |
| --- | --- | --- | --- | --- | --- |
| Cc1ccc(NC(=O)c2cc(Oc3ccc(S(C)(=O)=O)cc3)c3ccsc3c2)nc1 [Example 355, 4-(4-Methanesulfonyl-phenoxy)-benzo[b]thiophene-6-carboxylic acid(5-methyl-pyridin-2-yl)-amide] | 114 | 520 | 110 | – | – |
| Cn1ccc(NC(=O)c2cc(Oc3ccc(S(=O)(=O)C4CC4)c(F)c3)c3c(c2)OC(C)(C)C3)n1 [Example 141, 4-(4-Cyclopropanesulfonyl-3-fluoro-phenoxy)-2,2-dimethyl-2,3-dihydro-benzofuran-6-carboxylic acid (1-methyl-1H-pyrazol-3-yl)-amide] | 173 | 110 | 216 | – | – |
| Cn1ccc(NC(=O)c2cc(Oc3ccc(C(=O)NCCO)c(F)c3)c3c(c2)OC(C)(C)C3)n1 [Example 72, 4-[3-Fluoro-4-(2-hydroxy-ethylcarbamoyl)-phenoxy]-2,2-dimethyl-2,3-dihydro-benzofuran-6-carboxylic acid(1-methyl-1H-pyrazol-3-yl)-amide] | 182 | 950 | 161 | – | – |
| Cn1ncc(NC(=O)c2cc(Oc3ccc(C(=O)N4CCC4)c(F)c3)c3c(c2)OC(C)(C)C3)n1 [Example 159, 4-[4-(Azetidine-1-carbonyl)-3-fluoro-phenoxy]-2,2-dimethyl-2,3-dihydro-benzofuran-6-carboxylic acid (2-methyl-2H-[1,2,3]triazol-4-yl)-amide] | 243 | 150 | 260 | – | – |
| COCC1Cc2c(Oc3ccc(C(=O)N4CCC4)cc3)cc(C(=O)Nc3ccn(C)n3)cc2O1 (single isomer, unassigned; (+)) [Example 210, (+)-4-[4-(Azetidine-1-carbonyl)-phenoxy]-2-methoxymethyl-2,3-dihydro-benzofuran-6-carboxylic acid (1-methyl-1H-pyrazol-3-yl)-amide] | – | 850 | – | 130 | 143 |
| Cn1ccc(NC(=O)c2cc(Oc3ccc(C(=O)Nc4ccn(C)n4)c(F)c3)c3c(c2)OC(C)(C)C3)n1 [Example 65, 4-[3-Fluoro-4-(1-methyl-1H-pyrazol-3-ylcarbamoyl)-phenoxy]-2,2-dimethyl-2,3-dihydro-benzofuran-6-carboxylic acid(1-methyl-1H-pyrazol-3-yl)-amide] | 147 | 240 | 141 | – | – |
| Cc1ccc(NC(=O)c2cc(Oc3ccc(S(C)(=O)=O)cc3)c3c(c2)OC(C)(C)C3)nn1 [Example 21, 4-(4-Methanesulfonyl-phenoxy)-2,2-dimethyl-2,3-dihydro-benzofuran-6-carboxylic acid (6-methyl-pyridazin-3-yl)-amide] | 97.9 | 3900 | 127 | – | – |
| Cc1ccc(NC(=O)c2cc(Oc3ccc(S(C)(=O)=O)cc3)c3cc(C(F)F)oc3c2)nc1 [Example 321, 2-(Difluoromethyl)-N-(5-methylpyridin-2-yl)-4-[4-(methylsulfonyl)-phenoxy]-1-benzofuran-6-carboxamide] | 100 | 4300 | 132 | – | – |
| Cc1ccnc(C(C)Oc2cc(C(=O)Nc3ccn(C)n3)cc3c2CC(C)(C)O3)c1 (stereo not drawn) [Example 87, 2,2-Dimethyl-4-[1-(4-methyl-pyridin-2-yl)-ethoxy]-2,3-dihydro-benzofuran-6-carboxylic acid (1-methyl-1H-pyrazol-3-yl)-amide] | 73.6 | 8600 | 136 | – | – |
| C=C(C)c1cc2c(C(=O)Nc3ccc(C)cn3)cc(OC(C)C)cc2o1 [Example 346, 6-Isopropoxy-N-(5-methylpyridin-2-yl)-2-(prop-1-en-2-yl)benzofuran-4-carboxamide] | 69.2 | 1500 | 89 | – | – |
| CN(C)C(=O)c1c(F)cc(Oc2cc(C(=O)Nc3ccn(C)n3)cc3c2CC(C)(C)O3)cc1F [Example 111, 4-(4-Dimethylcarbamoyl-3,5-difluoro-phenoxy)-2,2-dimethyl-2,3-dihydro-benzofuran-6-carboxylic acid (1-methyl-1H-pyrazol-3-yl)-amide] | 85.2 | 45 | 115 | – | – |
| CC1(C)Cc2c(Oc3ccc(S(C)(=O)=O)cc3)cc(C(=O)Nc3ccon3)cc2O1 [Example 26, 4-(4-Methanesulfonyl-phenoxy)-2,2-dimethyl-2,3-dihydro-benzofuran-6-carboxylic acid isoxazol-3-ylamide] | 197 | 400 | 200 | – | – |
| Cn1ccc(NC(=O)c2cc(Oc3ccc(C(=O)N4CCOCC4)c(F)c3)c3c(c2)OC(C)(C)C3)n1 [Example 51, 4-[3-Fluoro-4-(morpholine-4-carbonyl)-phenoxy]-2,2-dimethyl-2,3-dihydro-benzofuran-6-carboxylic acid(1-methyl-1H-pyrazol-3-yl)-amide] | 129 | 250 | 130 | – | – |
| Cn1ccc(NC(=O)c2cc(Oc3ccc(C(=O)Nc4ccn(C)n4)nc3)c3c(c2)OC(C)(C)C3)n1 [Example 163, 5-[2,2-Dimethyl-6-(1-methyl-1H-pyrazol-3-ylcarbamoyl)-2,3-dihydro-benzofuran-4-yloxy]-pyridine-2-carboxylic acid (1-methyl-1H-pyrazol-3-yl)-amide] | 118 | 440 | 137 | – | – |
| CCOCC1Cc2c(OC(C)C)cc(C(=O)Nc3ccn(C)n3)cc2O1 (stereo not drawn) [Example 217, 2-Ethoxymethyl-4-isopropoxy-2,3-dihydro-benzofuran-6-carboxylic acid (1-methyl-1H-pyrazol-3-yl)-amide] | 5.3 | – | – | – | – |
| Cc1nccnc1C(C)Oc1cc(C(=O)Nc2ccn(C)n2)cc2c1CC(C)(C)O2 (stereo not drawn) [Example 83, 2,2-Dimethyl-4-[1-(3-methyl-pyrazin-2-yl)-ethoxy]-2,3-dihydro-benzofuran-6-carboxylic acid (1-methyl-1H-pyrazol-3-yl)-amide] | 78.3 | 8200 | 148 | – | – |
| CO[C@@H]1CCN(C(=O)c2ccc(Oc3cc(C(=O)Nc4ccn(C)n4)cc4c3CC(C)(C)O4)cc2F)C1 [Example 59, 4-[3-Fluoro-4-((R)-3-methoxy-pyrrolidine-1-carbonyl)-phenoxy]-2,2-dimethyl-2,3-dihydro-benzofuran-6-carboxylic acid(1-methyl-1H-pyrazol-3-yl)-amide] | 172 | 250 | 168 | – | – |
| COCC1Cc2c(Oc3ccc(C(=O)N4CCC4)c(F)c3)cc(C(=O)Nc3ccn(C)n3)cc2O1 (stereo not drawn) [Example 204, 4-[4-(Azetidine-1-carbonyl)-3-fluoro-phenoxy]-2-methoxymethyl-2,3-dihydro-benzofuran-6-carboxylic acid (1-methyl-1H-pyrazol-3-yl)-amide] | 73.9 | 2000 | 94 | – | – |
| Cn1ccc(NC(=O)c2cc(Oc3ccc(S(C)(=O)=O)cc3)c3cc(CN4CCCC4=O)oc3c2)n1 [Example 318, N-(1-Methyl-1H-pyrazol-3-yl)-4-[4-(methylsulfonyl)phenoxy]-2-[(2-oxopyrrolidin-1-yl)methyl]-1-benzofuran-6-carboxamide] | 91.3 | > 10000 | – | – | – |
